# pIC50: −log10 of the molar value.
# Columns and labels:
# HDAC (HeLa cell extract) = assay: Primary assay: deacetylase activity, HeLa cell extract as source of HDAC; assay type: biochemical, human
# Description: Briefly, this assay relies on the release of radioactive acetate from a radioactively labelled histone fragment by the action of HDAC enzyme. Test compounds, which inhibit HDAC, reduce the yield of radioactive acetate. Signal (e.g., scintillation counts) measured in the presence and absence of a test compound provide an indication of that compound's ability to inhibit HDAC activity. Decreased activity indicates increased inhibition by the test compound.
# The histone fragment was an N-terminal sequence from histone H4, and it was labelled with radioactively labelled acetyl groups using tritiated acetylcoenzyme A (coA) in conjunction with an enzyme which is the histone acetyltransferase domain of the transcriptional coactivator p300. 0.33 mg of peptide H4 (the N-terminal 20 amino acids of histone H4, synthesized using conventional methods) were incubated with His6-tagged p300 histone acetyltransferase domain (amino acids 1195-1673, expressed in E coli strain BLR(DE3)pLysS (Novagen, Cat. No. 69451-3) and 3H-acetyl coA (10 μL of 3.95 Ci/mmol; from Amersham) in a total volume of 300 μL of HAT buffer (50 mM TrisCl pH 8, 5% glycerol, 50 mM KCl, 0.1 mM ethylenediaminetetraacetic acid (EDTA), 1 mM dithiothreitol (DTT) and 1 mM 4-(2-aminoethyl)-benzenesulfonylfluoride (AEBSF)). The mixture was incubated at 30° C. for 45 min after which the His-p300 was removed using nickel-trinitriloacetic acid agarose (Qiagen, Cat No. 30210). The acetylated peptide was then separated from free acetyl coA by size exclusion chromatography on Sephadex G-15 (Sigma G-15-120), using distilled H2O as the mobile phase.
# After purification of the radiolabelled histone fragment, it was incubated with a source of HDAC (e.g., an extract of HeLa cells (a rich source of HDAC), recombinantly produced HDAC1 or HDAC2) and any released acetate was extracted into an organic phase and quantitatively determined using scintillation counting. By including a test compound with the source of HDAC, that compound's ability to inhibit the HDAC was determined.
# Two cell volumes of extraction buffer were used, and particulate material was centrifuged out (20800 g, 4° C., 10 min). The supernatant extract having deacetylase activity was aliquotted and frozen for storage.
# A source of HDAC (e.g., 2 μL of crude HeLa extract, 5 μL of HDAC1 or HDAC2; in elution buffer, as above) was incubated with 3 μL of radioactively labelled peptide along with appropriate dilutions of candidate compounds (1.5 μL) in a total volume of 150 μL of buffer (20 mM Tris pH 7.4, 10% glycerol). The reaction was carried out at 37° C. for one hour, after which the reaction was stopped by adding 20 μL of 1 M HCl/0.4 M sodium acetate. Then, 750 μL of ethyl acetate was added, the samples vortexed and, after centrifugation (14000 rpm, 5 min), 600 μL from the upper phase were transferred to a vial containing 3 mL of scintillation liquid (UltimaGold, Packard, Cat. No. 6013329). Radioactivity was measured using a Tri-Carb 2100TR Liquid Scintillation Analyzer (Packard).
# Percent activity (% activity) for each test compound was calculated as: % activity={(S^C−B)/(S^o−B)}×100 wherein S^c denotes signal measured in the presence of enzyme and the compound being tested, S^o denotes signal measured in the presence of enzyme but in the absence of the compound being tested, and B denotes the background signal measured in the absence of both enzyme and compound being tested.
# HeLa cells = assay: Secondary assay: cell proliferation WST-1, HeLa; assay type: cell-based; settings: Homo sapiens, 48 h, read-out: Cell Proliferation Inhibition WST-1 IC50, HeLa
# Procedure: (§1) Compounds with HDAC inhibition activity, as determined using the primary assay, were subsequently evaluated using secondary cell-based assays. The following cell lines were used:
# (§2) Cells were plated in 96-well plates at 3-10×10^3 cells/well in 100 μL of culture medium. The following day, different concentrations of candidate compounds were added and the cells incubated at 37° C. for 48 h. Subsequently, 10 μL/well of WST-1 reagent was added and the cells reincubated for 1 hour. After the incubation time, absorbance was measured.
# (§3) WST-1 is a tetrazolium salt which is cleaved to formazan dye by cellular enzymes. […] The formazan dye produced is quantified by a scanning multiwell spectrophotometer by measuring the absorbance of the dye solution at 450 nm wavelength (reference wavelength 690 nm).
# (§4) Percent activity (% activity) in reducing the number of viable cells was calculated for each test compound as: % activity={(S^C−B)/(S^o−B)}×100 wherein S^C denotes signal measured in the presence of the compound being tested, S^o denotes signal measured in the absence of the compound being tested, and B denotes the background signal measured in blank wells containing medium only. […] IC50 values were calculated using the software package Prism 3.0 (GraphPad Software Inc., San Diego, Calif.), setting top value at 100 and bottom value at 0.
# JURKAT human T-cell line = assay: Secondary assay: cell proliferation WST-1, Jurkat; assay type: cell-based; settings: 48 h, read-out: Cell Proliferation Inhibition WST-1 IC50, Jurkat
# Procedure: as §1
# JURKAT—Human T-cell line (ATCC no. TIB-152).
# as §2, §3, §4
# [1] = test system: K11 HPV E7 transformed human keratinocyte line; assay: Secondary assay: cell proliferation WST-1, K11; assay type: cell-based; settings: K11, 48 h, read-out: Cell Proliferation Inhibition WST-1 IC50, K11
# Procedure: as §1
# K11—HPV E7 transformed human keratinocyte line provided by Pidder Jansen-Duerr, Institut für Biomedizinische Alternsforschung, Innsbruck, Austria.
# as §2
# as §3, with “enzymes. An expansion in the number of viable cells results in an increase in the overall activity of mitochondrial dehydrogenases in the sample.” for “enzymes.”
# IC50 values were calculated using the software package Prism 3.0 (GraphPad Software Inc., San Diego, Calif.), setting top value at 100 and bottom value at 0.
structure (smiles),measurement,setting,value
CC(C)c1ccc(NC(=O)COCC(=O)NO)cc1 [Compound 1],"HDAC Inhibition, HeLa (percent activity)",HDAC (HeLa cell extract); @ 1.0 μM,16% @ 1.0 μM
"O=C(CCSCCNC(=O)c1ccc2ccccc2c1)NO [Compound 6, E-Naphthalene-2-carboxylic acid [2-(2-hydroxycarbamoylethylsulfanyl)ethyl]amide]","HDAC Inhibition, HeLa (percent activity)",HDAC (HeLa cell extract); @ 500 nM,43% @ 500 nM
"O=C(/C=C/c1ccccc1)Nc1cccc(OCC(=O)NO)c1 [Compound 8, (E)-N-{3-[2-(Hydroxyamino)-2-oxoethoxy]phenyl}-3-phenyl-2-propenamide]",pIC50,HeLa cells,4.60
same,pIC50,"HDAC (HeLa cell extract); unit inferred, read-out: HDAC Inhibition IC50, HeLa",6.12
same,pIC50,JURKAT human T-cell line,4.90
same,pIC50,[1],5.98
CN(C)c1ccc(NC(=O)CSCC(=O)NO)cc1 [Compound 2],"HDAC Inhibition, HeLa (percent activity)",HDAC (HeLa cell extract); @ 500 nM,26% @ 500 nM
"O=C(/C=C/C=C/c1ccccc1)NCCCOc1ccc(CC(=O)NO)cc1 [Compound 7, (2E,4E)-N-(3-{4-[2-(Hydroxyamino)-2-oxoethyl]phenoxy}propyl)-5-phenyl-2,4-pentadienamide]","HDAC Inhibition, HeLa (percent activity)",HDAC (HeLa cell extract); @ 500 nM,7% @ 500 nM
"O=C(/C=C/C#Cc1cccc(NS(=O)(=O)c2ccccc2)c1)NO [Oxamflatin, (2E)-5-[3-[(phenylsulfonyl)amino]phenyl]-pent-2-en-4-ynohydroxamic acid, reference compound]",pIC50,JURKAT human T-cell line,6.77
same,pIC50,[1],5.32
"O=C(/C=C/C=C/c1ccccc1)NCCSCCC(=O)NO [Compound 5, (2E)(4E)-5-Phenylpenta-2,4-dienoic acid [2-(2-hydroxycarbamoylethylsulfanyl)ethyl]amide]",pIC50,HeLa cells,4.06
same,"HDAC Inhibition, HeLa (percent activity)",HDAC (HeLa cell extract); @ 500 nM,74% @ 500 nM
CN(C)c1ccc(NC(=O)COCC(=O)NO)cc1 [Compound 4],"HDAC Inhibition, HeLa (percent activity)",HDAC (HeLa cell extract); @ 1.0 μM,0% @ 1 μM

# Source: patent US6960685B2 (TopoTarget UK Limited, priority 2000, dated 2005)
